Drawing on patent US10968217B2, “Tetrahydropyridopyrimidines for the treatment and prophylaxis of hepatitis B virus infection” (Hoffmann-La Roche Inc., priority 2016, dated 2021), this text covers IC50 for 33 molecules.

This experiment relates to HBsAg. In words: HBsAg assay (CLIA of secreted HBsAg in HepG2.2.15 culture supernatant). The experiment is classed as cell-based, HBV. As to conditions: Hepatitis B virus, HepG2.2.15, read-out: IC50 (HBsAg assay). The method, then:
HepG2.2.15 cells (Acs et al. Proc Natl Acad Sci USA, 84, (1987), 4641-4), a constitutively HBV-expressing cell line were cultured in DMEM+Glutamax-I medium (Invitrogen, Carlsbad, Calif., USA), supplemented with 10% fetal bovine serum (Invitrogen) and G418 (Invitrogen) at a final concentration of 200 mg/L and maintained in 5% CO2 at 37° C.
HepG2.2.15 cells were seeded in duplicate into white, 96-well plates at 1.5×10^4 cells/well. The cells were treated with a three-fold serial dilution series of the compounds in DMSO. The final DMSO concentration in all wells was 1% and DMSO was used as no drug control.
The HBsAg chemiluminescence immunoassay (CLIA) kit (Autobio Diagnostics Co., Zhengzhou, China, Catalog number: CL0310-2) was used to measure the levels of secreted HBV antigens semi-quantitatively. For the detection 50 μL/well culture supernatant was used and HBsAg was quantified using HBsAg chemiluminescence immunoassay (CLIA) kit (Autobio Diagnostics Co., Zhengzhou, China, Catalog number: CL0310-2), 50 μL of the supernatant was transferred to the CLIA assay plate and 50 μL of enzyme conjugate reagent was added into each well. The plates were sealed and gently agitated for 1 hour at room temperature. The supernatant-enzyme-mixture was discarded and wells were washed 6 times with 300 μL of PBS. The residual liquid was removed by plating the CLIA plate right side down on absorbent tissue paper. 25 μL of substrates A and B were added to each well. Luminance was measured using a luminometer (Mithras LB 940 Multimode Microplate Reader) after 10 minutes incubation. Dose-response curves were generated and the IC50 value was extrapolated by using the E-WorkBook Suite (ID Business Solutions Ltd., Guildford, UK). The IC50 was defined as the compound concentration at which HBsAg secretion was reduced by 50% compared to the no drug control.
In the case of `COCCCOc1ccc(C(=O)N2CCc3nc(-c4ccccn4)ncc3C2)cc1OC` [Example 26, [3-Methoxy-4-(3-methoxypropoxy)phenyl]-[2-(2-pyridyl)-7,8-dihydro-5H-pyrido[4,3-d]pyrimidin-6-yl]methanone], the IC50 is 3.18 µM.

`Cc1ccc(C(=O)N2CCc3nc(-c4ccccn4)ncc3C2)nc1` [Example 27, (5-Methyl-2-pyridyl)-[2-(2-pyridyl)-7,8-dihydro-5H-pyrido[4,3-d]pyrimidin-6-yl]methanone]: the IC50 turned out to be 24.2 µM.

In the case of `Cc1ccc(C(=O)N2CCc3nc(-c4ccccn4)ncc3C2)cc1F` [Example 28, (3-Fluoro-4-methyl-phenyl)-[2-(2-pyridyl)-7,8-dihydro-5H-pyrido[4,3-d]pyrimidin-6-yl]methanone], the IC50 was found to be 9.34 µM.

With `COc1ccc(C(=O)N2CCc3nc(-c4ccccn4)ncc3C2)nc1` [Example 29, (5-Methoxy-2-pyridyl)-[2-(2-pyridyl)-7,8-dihydro-5H-pyrido[4,3-d]pyrimidin-6-yl]methanone], the IC50 was 34.2 µM.

On to `COc1c(F)cc(C(=O)N2CCc3nc(-c4ccccn4)ncc3C2)cc1F` [Example 30, (3,5-Difluoro-4-methoxy-phenyl)-[2-(2-pyridyl)-7,8-dihydro-5H-pyrido[4,3-d]pyrimidin-6-yl]methanone], for which the IC50 is 25.2 µM.

As to `Cc1ccc(C(=O)N2CCc3nc(-c4ccccn4)ncc3C2)cn1` [Example 31, (6-Methyl-3-pyridyl)-[2-(2-pyridyl)-7,8-dihydro-5H-pyrido[4,3-d]pyrimidin-6-yl]methanone], the IC50 stood at 31.9 µM.

As to `Cc1csc(C(=O)N2CCc3nc(-c4ccccn4)ncc3C2)c1` [Example 32, (4-Methyl-2-thienyl)-[2-(2-pyridyl)-7,8-dihydro-5H-pyrido[4,3-d]pyrimidin-6-yl]methanone], the IC50 stood at 1.67 µM.

Turning to `Cc1cc(C(=O)N2CCc3nc(-c4ccccn4)ncc3C2)no1` [Example 33, (5-Methylisoxazol-3-yl)-[2-(2-pyridyl)-7,8-dihydro-5H-pyrido[4,3-d]pyrimidin-6-yl]methanone], the IC50 is 8.11 µM.

For the molecule `COc1ccc(C(=O)N2CCc3nc(-c4ccccn4)ncc3C2)cn1` [Example 36, (6-Methoxy-3-pyridyl)-[2-(2-pyridyl)-7,8-dihydro-5H-pyrido[4,3-d]pyrimidin-6-yl]methanone], the IC50 worked out at 3.97 µM.

Take `O=C(c1cc(F)cc(F)c1)N1CCc2nc(-c3ccccn3)ncc2C1` [Example 37, (3,5-Difluorophenyl)-[2-(2-pyridyl)-7,8-dihydro-5H-pyrido[4,3-d]pyrimidin-6-yl]methanone]: the IC50 worked out at 25.8 µM.

`COc1cc(F)cc(C(=O)N2CCc3nc(-c4ccccn4)ncc3C2)c1` [Example 38, (3-Fluoro-5-methoxy-phenyl)-[2-(2-pyridyl)-7,8-dihydro-5H-pyrido[4,3-d]pyrimidin-6-yl]methanone]: the IC50 was determined as 21.7 µM.

On to `COc1ccc(C(=O)N2CCc3nc(-c4ccccn4)ncc3C2)cc1` [Example 39, (4-Methoxyphenyl)-[2-(2-pyridyl)-7,8-dihydro-5H-pyrido[4,3-d]pyrimidin-6-yl]methanone], for which the IC50 amounted to 10.6 µM.

Take `COCCCOc1ccc(C(=O)N2CCc3nc(-c4ncccn4)ncc3C2C)cc1Cl` (stereo not drawn) [Example 40, [3-Chloro-4-(3-methoxypropoxy)phenyl]-(5-methyl-2-pyrimidin-2-yl-7,8-dihydro-5H-pyrido[4,3-d]pyrimidin-6-yl)methanone]: the IC50 was 1.93 µM.

`Cc1csc(C(=O)N2CCc3nc(-c4ccccn4)ncc3C2C)c1` (stereo not drawn) [Example 41, [5-Methyl-2-(2-pyridyl)-7,8-dihydro-5H-pyrido[4,3-d]pyrimidin-6-yl]-(4-methyl-2-thienyl)methanone]: the half-maximal inhibitory concentration (IC50) was determined as 0.38 µM.

For `CC1c2cnc(-c3ccccn3)nc2CCN1C(=O)c1ccc(Cl)s1` (stereo not drawn) [Example 42, (5-Chloro-2-thienyl)-[5-methyl-2-(2-pyridyl)-7,8-dihydro-5H-pyrido[4,3-d]pyrimidin-6-yl]methanone], the IC50 amounted to 0.258 µM.

With `Cc1ccc(C(=O)N2CCc3nc(-c4ccccn4)ncc3C2C)s1` (stereo not drawn) [Example 43, [5-Methyl-2-(2-pyridyl)-7,8-dihydro-5H-pyrido[4,3-d]pyrimidin-6-yl]-(5-methyl-2-thienyl)methanone], the IC50 was 0.326 µM.

Consider `CC1c2cnc(-c3ccccn3)nc2CCN1C(=O)c1ccsc1` (stereo not drawn) [Example 44, [5-Methyl-2-(2-pyridyl)-7,8-dihydro-5H-pyrido[4,3-d]pyrimidin-6-yl]-(3-thienyl)methanone], for which the IC50 is 2.46 µM.

Turning to `Cc1ncoc1C(=O)N1CCc2nc(-c3ccccn3)ncc2C1C` (stereo not drawn) [Example 45, (4-Methyloxazol-5-yl)-[5-methyl-2-(2-pyridyl)-7,8-dihydro-5H-pyrido[4,3-d]pyrimidin-6-yl]methanone], the IC50 was 1.43 µM.

As to `CC1c2cnc(-c3ccccn3)nc2CCN1C(=O)c1ccc2cc[nH]c2c1` (stereo not drawn) [Example 46, 1H-ndol-6-yl-[5-methyl-2-(2-pyridyl)-7,8-dihydro-5H-pyrido[4,3-d]pyrimidin-6-yl]methanone], the concentration for half-maximal inhibition (IC50) amounted to 2.08 µM.

Consider `CC1c2cnc(-c3ccccn3)nc2CCN1C(=O)c1ccc2[nH]ncc2c1` (stereo not drawn) [Example 47, 1H-indazol-5-yl-[5-methyl-2-(2-pyridyl)-7,8-dihydro-5H-pyrido[4,3-d]pyrimidin-6-yl]methanone], for which the IC50 is 2.47 µM.

As to `CC1c2cnc(-c3ccccn3)nc2CCN1C(=O)c1cc2ccccc2s1` (stereo not drawn) [Example 48, Benzothiophen-2-yl-[5-methyl-2-(2-pyridyl)-7,8-dihydro-5H-pyrido[4,3-d]pyrimidin-6-yl]methanone], the IC50 stood at 0.472 µM.

As for `CC1c2cnc(-c3ccccn3)nc2CCN1C(=O)c1cccs1` (stereo not drawn) [Example 49, [5-Methyl-2-(2-pyridyl)-7,8-dihydro-5H-pyrido[4,3-d]pyrimidin-6-yl]-(2-thienyl)methanone], the half-inhibitory concentration (IC50) was found to be 1.11 µM.

`Cc1ccsc1C(=O)N1CCc2nc(-c3ccccn3)ncc2C1C` (stereo not drawn) [Example 50, [5-Methyl-2-(2-pyridyl)-7,8-dihydro-5H-pyrido[4,3-d]pyrimidin-6-yl]-(3-methyl-2-thienyl)methanone]: the IC50 was determined as 27.7 µM.

Take `CC1c2cnc(-c3ccccn3)nc2CCN1C(=O)c1nccs1` (stereo not drawn) [Example 51, [5-Methyl-2-(2-pyridyl)-7,8-dihydro-5H-pyrido[4,3-d]pyrimidin-6-yl]-thiazol-2-yl-methanone]: the IC50 amounted to 0.627 µM.

In the case of `CC1c2cnc(-c3ccccn3)nc2CCN1C(=O)c1ccc(Br)s1` (stereo not drawn) [Example 53, (5-Bromo-2-thienyl)-[5-methyl-2-(2-pyridyl)-7,8-dihydro-5H-pyrido[4,3-d]pyrimidin-6-yl]methanone], the IC50 was 0.51 µM.

For the molecule `CC1c2cnc(-c3ccccn3)nc2CCN1C(=O)c1cncs1` (stereo not drawn) [Example 54, [5-Methyl-2-(2-pyridyl)-7,8-dihydro-5H-pyrido[4,3-d]pyrimidin-6-yl]-thiazol-5-yl-methanone], the IC50 is 11.5 µM.

Take `Cc1cnc(C(=O)N2CCc3nc(-c4ccccn4)ncc3C2C)s1` (stereo not drawn) [Example 55, [5-Methyl-2-(2-pyridyl)-7,8-dihydro-5H-pyrido[4,3-d]pyrimidin-6-yl]-(5-methylthiazol-2-yl)methanone]: the IC50 worked out at 0.223 µM.

`CC1c2cnc(-c3ccccn3)nc2CCN1C(=O)c1ncc[nH]1` (stereo not drawn) [Example 56, 1H-Imidazol-2-yl-[5-methyl-2-(2-pyridyl)-7,8-dihydro-5H-pyrido[4,3-d]pyrimidin-6-yl]methanone]: the IC50 worked out at 1.08 µM.

Take `CC1c2cnc(-c3ccccn3)nc2CCN1C(=O)c1nccn1C` (stereo not drawn) [Example 57, (1-Methylimidazol-2-yl)-[5-methyl-2-(2-pyridyl)-7,8-dihydro-5H-pyrido[4,3-d]pyrimidin-6-yl]methanone]: the IC50 amounted to 3.23 µM.

Regarding `CC1c2cnc(-c3ccccn3)nc2CCN1C(=O)c1ncco1` (stereo not drawn) [Example 60, [5-Methyl-2-(2-pyridyl)-7,8-dihydro-5H-pyrido[4,3-d]pyrimidin-6-yl]-oxazol-2-yl-methanone], the IC50 is 2.61 µM.

Regarding `Cc1nc(C(=O)N2CCc3nc(-c4ccccn4)ncc3C2C)sc1C` (stereo not drawn) [Example 61, (4,5-Dimethylthiazol-2-yl)-[5-methyl-2-(2-pyridyl)-7,8-dihydro-5H-pyrido[4,3-d]pyrimidin-6-yl]methanone], the IC50 was 0.082 µM.

In the case of `CC1c2cnc(-c3ncccn3)nc2CCN1C(=O)c1nn(C)c2ccccc12` (stereo not drawn) [Example 62, (1-Methylindazol-3-yl)-(5-methyl-2-pyrimidin-2-yl-7,8-dihydro-5H-pyrido[4,3-d]pyrimidin-6-yl)methanone], the concentration for half-maximal inhibition (IC50) is 0.42 µM.

`CC1c2cnc(-c3ncccn3)nc2CCN1C(=O)c1n[nH]c2ccccc12` (stereo not drawn) [Example 63, 1H-indazol-3-yl-(5-methyl-2-pyrimidin-2-yl-7,8-dihydro-5H-pyrido[4,3-d]pyrimidin-6-yl)methanone]: the IC50 stood at 0.45 µM.

By IC50 is commonly meant the point on the concentration scale where inhibition reaches its midpoint.
